Read-outs that look alike come from different tables or passages of the source.
Columns and labels:
[1] = system: NFAT-driven β-lactamase synthesis (Icrac activation) in NFAT-β-lactamase Jurkat cells; assay: NFAT-β-lactamase gene-reporter assay in Jurkat cells (Jk-NFAT-βlac), CCF2-AM ratio 460/535; type: cell-based; details: for Effect on β-lactamase synthesis at 10 μM / Effect on TG-driven β-lactamase synthesis / NFAT activation: Jurkat cells; for Effect on β-lactamase synthesis at 10 μM: TG 1 μM (FIG. 4); for Effect on TG-driven β-lactamase synthesis / NFAT activation: with TG 1 μM for 4 h (FIG. 4)
Procedure: (§1) Jurkat cell lines (Jk-NFAT-βlac) stably transfected with plasmid containing 3×NFAT-β-lactamase reporter gene (for NFAT promoter sequence see (19)), and plasmid containing CMV-β-lactamase (Jk-CMV-βlac), where CMV is a constitutively active promoter as well as HEK cells (HEK-CRE-βlac) with 3×CRE-β-lactamase (the CRE promoter contains CRE box sequence of CGTCA (20)) were obtained from Aurora Biosciences Corp (San Diego, Calif.).
Jurkat cells were grown in RPMI 1640 medium supplemented with 10% foetal bovine serum, 2 mM L-glutamine, 1 mM NEAA, 1 mM Na pyruvate, 25 mM HEPES, pH 7.4, gentamicin 100 μg/ml. HEK-293 cells were grown in MEM glutamax, supplemented with 10% FBS, gentamycin 100 μg/ml, HEPES 20 mM. Medium for stable cell propagation contained 250 μg/ml Zeocin (Jk-NFAT-βlac) or 800 μg/ml Geneticin (Jk-CMV-βlac, HEK-CRE-βlac). […] Cells were then loaded, for 1 h in the dark at room temperature, with 12 μM CCF2-AM (13). Fluorescence was monitored with a Fluostar (BMG, Germany) fluorimeter. Excitation was at 405 nm, and emission record at 460 nm and 535 nm. The ratio (460 nm/535 nm) of fluorescence unit (F.U.) was estimated after correction for background (medium without cells). HEK-CRE-βlac were stimulated using Forskolin 10 μM in the medium mentioned above (4×10^4 cells/well). All reagents were added with the stimulator agent (e.g. TG or forskolin), unless noticed.

[2] = system: constitutive β-lactamase (CMV-driven) in Jurkat cells; assay: Constitutive CMV-β-lactamase Jurkat cell assay (Jk-CMV-βlac); type: cell-based; details: Jk-CMV-βlac cells (FIG. 6, DMSO 3%)
Procedure: as §1
Jurkat cells were grown in RPMI 1640 medium supplemented with 10% foetal bovine serum, 2 mM L-glutamine, 1 mM NEAA, 1 mM Na pyruvate, 25 mM HEPES, pH 7.4, gentamicin 100 μg/ml. HEK-293 cells were grown in MEM glutamax, supplemented with 10% FBS, gentamycin 100 μg/ml, HEPES 20 mM. Medium for stable cell propagation contained 250 μg/ml Zeocin (Jk-NFAT-βlac) or 800 μg/ml Geneticin (Jk-CMV-βlac, HEK-CRE-βlac). In a 96-well plate, 1 μM Thapsigargin (TG) was used to stimulate NFAT Jurkat cells (10^5 per well), for 4 h at 37° C., 5% CO2, in Dulbecco's Modified Essential Medium ([Ca^++] 1.8 mM) 10% FBS, gentamycin 100 μg/ml. Cells were then loaded, for 1 h in the dark at room temperature, with 12 μM CCF2-AM (13). Fluorescence was monitored with a Fluostar (BMG, Germany) fluorimeter. Excitation was at 405 nm, and emission record at 460 nm and 535 nm. The ratio (460 nm/535 nm) of fluorescence unit (F.U.) was estimated after correction for background (medium without cells). […]

Icrac channel = assay: Optical measurement of intracellular [Ca++] with Fura-2; type: cell-based; details: Fura-2 as probe
Procedure: Loading with 2 μM fura-2-AM was performed with a 3×10^6 cells suspension for 30 min at 37° C., in Hanks buffer saline solution (HBSS). Cells were washed and resuspended twice to minimize extracellular dye. Fura-2 fluorescence measurements were carried out in a water-jacketed cuvette (room temperature) with continuous stirring, containing 1 ml of the cells suspension. Fluorescence was monitored with a Shimadzu spectrofluorophotometer by continuously (1 sec intervals) collecting excitation signals at 340 nm and 380 nm and emission signal at 510 nm. Maximal and minimal fluorescence were obtained by adding ionomycin 25 μM and EGTA (20 mM) respectively and sequentially at the end of the experiment. The ratio of excitation signals at 340 nm and 380 nm was used to calculate [Ca^++] as previously described (21) assuming a Kd of 155 nM.

[3] = system: NFAT-β-lactamase Jurkat cells; assay: CCF2-AM loading capacity of NFAT-β-lactamase Jurkat cells (F.U. at 535 nm); details: for Toxic effects (weak loading): 50 μM, data not shown
[4] = system: NFAT-driven β-lactamase synthesis in p815 mastocyte cells; assay: NFAT-β-lactamase gene-reporter assay in p815 mastocytes (p815-NFAT-βlac); type: cell-based; details: mastocytes (not shown)
Procedure: The mastocyte monoclonal cell line (p815-NFAT-βlac) stably transfected with plasmid containing 3×NFAT-β-lactamase were obtained as follow. Cells (1.10^7/ml) were electroporated in a 0.4 cm gap cuvette using a BioRad Gene Pulser II at 960 μF and 300V, using 20 μg of pcDNAIII 3×NFAT-β-lactamase Zeomycin expression vector (from Aurora Biosciences Corp; San Diego, Calif.) in DMEM medium. After 48 h, electroporated p815 cells were selected for 2 weeks using 250 μg/ml Zeocin (InVitrogen, Calif.). A pool of TG responding cells were first sorted, using FACS Vantage (Becton Dickinson, Calif.), and a week after, 200 cells were monosorted (one cell per well) from this pool, 15 clones grown up, and were tested as follow.
Jurkat cells were grown in RPMI 1640 medium supplemented with 10% foetal bovine serum, 2 mM L-glutamine, 1 mM NEAA, 1 mM Na pyruvate, 25 mM HEPES, pH 7.4, gentamicin 100 μg/ml. HEK-293 cells were grown in MEM glutamax, supplemented with 10% FBS, gentamycin 100 μg/ml, HEPES 20 mM. Medium for stable cell propagation contained 250 μg/ml Zeocin (Jk-NFAT-βlac) or 800 μg/ml Geneticin (Jk-CMV-βlac, HEK-CRE-βlac). […] Fluorescence was monitored with a Fluostar (BMG, Germany) fluorimeter. […] The ratio (460 nm/535 nm) of fluorescence unit (F.U.) was estimated after correction for background (medium without cells). […]

β-lactamase = β-lactamase inhibitor; cited from earlier work

C[C@@H]1C[C@@H]([C@H](O)CC2CC(=O)NC(=O)C2)C(=O)[C@@H](C)C1 [CHX, cycloheximide]
Effect on β-lactamase synthesis when added after TG stimulation ([1]; added as long as 4 hrs after TG stimulation): inhibitory effect

CC(=O)C1=C(O)[C@@H]2[C@H]3c4c[nH]c5cccc(c45)C[C@H]3C(C)(C)N2C1=O [CPA, cyclopiazonic acid]
Ratio (460 nm/535 nm) [1]: 0.407 ± 0.041 | % total (TG 1 μM) ([1]; CPA 10 μM): 59%

C[S+](C)[O-] [DMSO, dimethyl sulfoxide]
Interference with the assay ([1]; 0.5% final concentration): did not hinder the assay | Effect on β-lactamase synthesis when added after TG activation ([1]; added 3 hrs after TG activation): did not block β-lactamase synthesis | Effect on constitutive β-lactamase synthesis [2]: no effect | Effect on the Icrac channel, [Ca++]i determination (Icrac channel): no effect | F.U. at 535 nm, % control ([3]; DMSO 0.1%): 99.2% | F.U. at 535 nm, % control ([3]; DMSO 1%): 96.1% | F.U. at 535 nm, % control ([3]; DMSO 2%): 97% | F.U. at 535 nm, % control ([3]; DMSO 4%): 107.7% | F.U. at 535 nm, % control ([3]; DMSO 5%): 110.1%

COc1ccc([C@@H]2Sc3ccccc3N(CCN(C)C)C(=O)[C@@H]2OC(C)=O)cc1 [Diltiazem]
Effect on β-lactamase synthesis at 10 μM [1]: did not have any effect | Toxic effects (weak loading) [3]: Toxic effects were detected

C=C1[C@@H](O)[C@@H]2O[C@]3(CC[C@H](/C=C/[C@@H](C)[C@@H]4CC(C)=C[C@@]5(O[C@H](C[C@@](C)(O)C(=O)O)CC[C@H]5O)O4)O3)CC[C@H]2O[C@@H]1[C@@H](O)C[C@H](C)[C@H]1O[C@@]2(CCCCO2)CC[C@H]1C [Okadaic acid, okadaic acid]
Effect on TG-driven β-lactamase synthesis / NFAT activation [1]: blocked the β-lactamase synthesis | Effect on β-lactamase synthesis [4]: blocked the β-lactamase synthesis

CCCCCCCCCCCCCC(=O)O[C@@H]1[C@@H](C)[C@@]2(O)[C@@H](C=C(CO)C[C@]3(O)C(=O)C(C)=C[C@@H]23)[C@@H]2C(C)(C)[C@]12OC(C)=O [PMA, phorbol myristate acetate]
Ratio (460 nm/535 nm) [1]: 0.012 ± 0.008 | % total (TG 1 μM) ([1]; PMA 10 nM): 2%

C/C=C(/C)C(=O)O[C@H]1C(C)=C2[C@H]([C@@H]1OC(=O)CCCCCCC)[C@@](C)(OC(C)=O)C[C@H](OC(=O)CCC)[C@@]1(O)[C@H]2OC(=O)[C@@]1(C)O [TG, thapsigargin]
β-lactamase synthesis versus TG concentration ([1]; 5-10 μM TG): decrease was observed | % total (TG 1 μM) ([1]; TG 1 μM): 100% | Ratio (460 nm/535 nm) ([1]; TG 1 μM): 0.688 ± 0.035 | Relative potency as Icrac activator (in words) ([1]; Table 1): most active Icrac activator | β-lactamase synthesis versus TG concentration ([1]; concentrations higher than 1 μM (FIG. 2C)): did not further increase the β-lactamase synthesis | β-lactamase activity with thapsigargin alone ([1]; conventional conditions, 0.4 mM [Ca++] (FIG. 2B)): weak

C[C@]1(Cn2ccnn2)[C@H](C(=O)O)N2C(=O)C[C@H]2S1(=O)=O [Tazobactam]
IC50 ([1]; Homo sapiens, Jurkat, NFAT-driven (FIG. 4), read-out: IC50, block of NFAT-driven β-lactamase): 2000 nM | Ki (β-lactamase): 700 nM

COc1ccc(CCN(C)CCCC(C#N)(c2ccc(OC)c(OC)c2)C(C)C)cc1OC (stereo not drawn) [Verapamil]
Effect on β-lactamase synthesis at 10 μM [1]: did not have any effect | Toxic effects (weak loading) [3]: Toxic effects were detected

calyculin
Effect on TG-driven β-lactamase synthesis / NFAT activation [1]: blocked the NFAT activation in a dose dependent manner

phytohemaggutinin [PHA]
% total (TG 1 μM) ([1]; PHA 1 μg/ml): 41% | Ratio (460 nm/535 nm) ([1]; PHA 1 μg/ml): 0.280 ± 0.116 | % total (TG 1 μM) ([1]; PHA 10 μg/ml): 84% | Ratio (460 nm/535 nm) ([1]; PHA 10 μg/ml): 0.578 ± 0.040
